Results published in ChEMBL document CHEMBL1201862, “PubChem BioAssay data set” (2004).
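Values below derive from 48-hour exposures of cells grown in 96-well plates, with endpoints linearly interpolated between the two concentrations bracketing the appropriate inhibition level. Abbreviation: GI50, concentration required for 50% inhibition of growth.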 Activity calls are given as the source filed them. Cut-off read from the data, not from the text of the source: active = GI50 up to about 1.1 µM and inactive = higher.

Assays:
Experiment in all cases: growth of human tumour cells (NCI), 48 h
HOP-92 = test system: HOP-92
SK-MEL-5 = test system: SK-MEL-5
SNB-19 = test system: SNB-19
KM12 = test system: KM12
SF-268 = test system: SF-268
SK-OV-3 = test system: SK-OV-3
HCT-15 = test system: HCT-15
ACHN = test system: ACHN
COLO 205 = test system: COLO 205
HCT-116 = test system: HCT-116
UACC-62 = test system: UACC-62
NCI-H23 = test system: NCI-H23
A498 = test system: A498
HT-29 = test system: HT-29
UO-31 = test system: UO-31
NCI-H226 = test system: NCI-H226
A549 = test system: A549
DMS-273 = test system: DMS-273
DU-145 = test system: DU-145
MDA-MB-231 = test system: MDA-MB-231

C/C(CC(=O)Nc1cccc(C)c1C)=N\NC(N)=S
GI50 (HOP-92): > 100 µM (inactive) | GI50 (SK-MEL-5): > 100 µM (inactive) | GI50 (SNB-19): > 100 µM (inactive) | GI50 (KM12): > 100 µM (inactive) | GI50 (SF-268): > 100 µM (inactive) | GI50 (SK-OV-3): > 100 µM (inactive) | GI50 (HCT-15): 41.8 µM | GI50 (ACHN): > 100 µM (inactive) | GI50 (COLO 205): > 100 µM (inactive) | GI50 (HCT-116): 88.7 µM (inactive) | GI50 (UACC-62): > 100 µM (inactive) | GI50 (NCI-H23): > 100 µM (inactive) | GI50 (A498): > 100 µM (inactive) | GI50 (HT-29): > 100 µM (inactive) | GI50 (UO-31): > 100 µM (inactive) | GI50 (NCI-H226): > 100 µM (inactive) | GI50 (A549): > 100 µM (inactive) | GI50 (DMS-273): > 100 µM (inactive)

CC(C)c1ccc(C2C3=C(N=C4SCC(=O)N42)C(=O)c2ccccc23)cc1 (configuration not stated)
GI50 (HOP-92): 15.7 µM (inactive) | GI50 (SK-MEL-5): 52.6 µM (inactive) | GI50 (SNB-19): 64.9 µM (inactive) | GI50 (KM12): > 100 µM (inactive) | GI50 (SF-268): 37.1 µM (inactive) | GI50 (SK-OV-3): > 100 µM (inactive) | GI50 (HCT-15): 88.9 µM | GI50 (ACHN): 73.1 µM (inactive) | GI50 (COLO 205): > 100 µM (inactive) | GI50 (HCT-116): 70.6 µM (inactive) | GI50 (UACC-62): 33.7 µM (inactive) | GI50 (NCI-H23): 75.3 µM (inactive) | GI50 (A498): > 100 µM (inactive) | GI50 (HT-29): > 100 µM (inactive) | GI50 (UO-31): 5.6 µM (inactive) | GI50 (NCI-H226): 51.4 µM (inactive) | GI50 (A549): 58.9 µM (inactive) | GI50 (DMS-273): > 100 µM (inactive)

CC(C)(C)C1CCC2c3c([nH]c4ccccc34)C3C(=O)N(c4ccc(Br)cc4)C(=O)C3C2C1 (configuration not stated)
GI50 (HOP-92): 24.3 µM (inactive) | GI50 (SK-MEL-5): 25.8 µM (inactive) | GI50 (SNB-19): 16.9 µM (inactive) | GI50 (KM12): 22.3 µM (inactive) | GI50 (SF-268): 24.5 µM (inactive) | GI50 (HCT-15): 13.7 µM | GI50 (ACHN): 17.7 µM (inactive) | GI50 (COLO 205): 11.1 µM (inactive) | GI50 (HCT-116): 32.9 µM (inactive) | GI50 (UACC-62): 26.9 µM (inactive) | GI50 (NCI-H23): 18.8 µM (inactive) | GI50 (A498): 28.6 µM (inactive) | GI50 (HT-29): 17.3 µM (inactive) | GI50 (UO-31): 14.2 µM (inactive) | GI50 (NCI-H226): 18.7 µM (inactive) | GI50 (A549): 17.7 µM (inactive) | GI50 (DMS-273): 17.1 µM (inactive)

CO[C@H]1C[C@](C)(O)Cc2cc3c(c(O)c21)C(=O)c1c(O)cc2c(c1C3=O)O[C@@H]1O[C@@]2(C)[C@H](O)[C@@H](N(C)C)[C@@H]1O
GI50 (DU-145): 0.536 µM (active) | GI50 (HOP-92): 0.362 µM (active) | GI50 (SK-MEL-5): 1.16 µM (inactive) | GI50 (SNB-19): 0.434 µM (active) | GI50 (MDA-MB-231): 1.82 µM (inactive) | GI50 (KM12): 1.76 µM (inactive) | GI50 (SF-268): 1.22 µM (inactive) | GI50 (SK-OV-3): 0.641 µM (active) | GI50 (HCT-15): 1.23 µM | GI50 (ACHN): 0.279 µM (active) | GI50 (COLO 205): 1.96 µM (inactive) | GI50 (HCT-116): 0.652 µM (active) | GI50 (UACC-62): 0.738 µM (active) | GI50 (NCI-H23): 0.804 µM (active) | GI50 (A498): 0.968 µM (active) | GI50 (HT-29): 1.94 µM (inactive) | GI50 (UO-31): 1.74 µM (inactive) | GI50 (NCI-H226): 0.59 µM (active) | GI50 (A549): 0.0908 µM (active) | GI50 (DMS-273): 0.215 µM (active)

O=C(c1cc(=O)c2ccc(O)cc2o1)c1ccc(Cl)cc1Cl
GI50 (HOP-92): 32.8 µM (inactive) | GI50 (SK-MEL-5): 20.4 µM (inactive) | GI50 (SNB-19): 49.1 µM (inactive) | GI50 (KM12): 5.9 µM (inactive) | GI50 (SF-268): 13.8 µM (inactive) | GI50 (SK-OV-3): > 62.1 µM (inactive) | GI50 (HCT-15): 4.63 µM | GI50 (ACHN): 5.24 µM (inactive) | GI50 (COLO 205): 3.27 µM (inactive) | GI50 (HCT-116): 13.6 µM (inactive) | GI50 (UACC-62): 5.93 µM (inactive) | GI50 (NCI-H23): 24 µM (inactive) | GI50 (A498): 57.3 µM (inactive) | GI50 (HT-29): 36.2 µM (inactive) | GI50 (UO-31): 5.92 µM (inactive) | GI50 (NCI-H226): 26.7 µM (inactive) | GI50 (A549): > 30.8 µM (inactive) | GI50 (DMS-273): 3.89 µM (inactive)

Cc1cccc(C(C)(C)C)c1NC(=O)C(=O)Cc1nc2ccccc2s1
GI50 (HOP-92): > 100 µM (inactive) | GI50 (SK-MEL-5): > 100 µM (inactive) | GI50 (SNB-19): > 100 µM (inactive) | GI50 (KM12): > 100 µM (inactive) | GI50 (SF-268): > 100 µM (inactive) | GI50 (SK-OV-3): > 100 µM (inactive) | GI50 (HCT-15): > 100 µM | GI50 (ACHN): > 100 µM (inactive) | GI50 (COLO 205): > 100 µM (inactive) | GI50 (HCT-116): > 100 µM (inactive) | GI50 (UACC-62): > 100 µM (inactive) | GI50 (NCI-H23): > 100 µM (inactive) | GI50 (A498): > 100 µM (inactive) | GI50 (HT-29): > 100 µM (inactive) | GI50 (UO-31): > 100 µM (inactive) | GI50 (NCI-H226): > 100 µM (inactive) | GI50 (A549): > 100 µM (inactive) | GI50 (DMS-273): > 100 µM (inactive)

C=C(c1ccccc1N)[C@@]1(O)C[C@H](/C(=C\C)CO)C[C@@H]1NCc1ccccc1
GI50 (HOP-92): 3.78 µM (inactive) | GI50 (SK-MEL-5): 17.1 µM (inactive) | GI50 (SNB-19): 23.2 µM (inactive) | GI50 (KM12): 18.2 µM (inactive) | GI50 (SF-268): 30.8 µM (inactive) | GI50 (SK-OV-3): 21.5 µM (inactive) | GI50 (HCT-15): 29 µM | GI50 (ACHN): 36.8 µM (inactive) | GI50 (COLO 205): 16.7 µM (inactive) | GI50 (HCT-116): 15.3 µM (inactive) | GI50 (UACC-62): 28.6 µM (inactive) | GI50 (NCI-H23): 29.9 µM (inactive) | GI50 (A498): 82.6 µM (inactive) | GI50 (HT-29): 17.5 µM (inactive) | GI50 (UO-31): 17.4 µM (inactive) | GI50 (NCI-H226): 15 µM (inactive) | GI50 (A549): 37 µM (inactive) | GI50 (DMS-273): 28.6 µM (inactive)

O=C(NC(c1ccccc1)C(O)C(=O)OCc1ccc2c(c1)C(=O)c1ccccc1C2=O)c1ccccc1 (configuration not stated)
GI50 (DU-145): 54.7 µM (inactive) | GI50 (HOP-92): 3.15 µM (inactive) | GI50 (SK-MEL-5): 13.6 µM (inactive) | GI50 (SNB-19): 5.47 µM (inactive) | GI50 (MDA-MB-231): 15 µM (inactive) | GI50 (KM12): 57.4 µM (inactive) | GI50 (SF-268): 17.1 µM (inactive) | GI50 (SK-OV-3): 5.18 µM (inactive) | GI50 (HCT-15): > 95.3 µM | GI50 (ACHN): 9.31 µM (inactive) | GI50 (COLO 205): 48.4 µM (inactive) | GI50 (HCT-116): 3.94 µM (inactive) | GI50 (UACC-62): 14.7 µM (inactive) | GI50 (NCI-H23): 12 µM (inactive) | GI50 (A498): 5.71 µM (inactive) | GI50 (HT-29): 61.4 µM (inactive) | GI50 (UO-31): 2.86 µM (inactive) | GI50 (NCI-H226): 4.61 µM (inactive) | GI50 (A549): 9.91 µM (inactive) | GI50 (DMS-273): 18.6 µM (inactive)

COc1cc(Nc2nc3cc(C)ccc3nc2-c2ccccc2)cc(OC)c1OC
GI50 (HOP-92): 23.2 µM (inactive) | GI50 (SK-MEL-5): 19.2 µM (inactive) | GI50 (SNB-19): 57.4 µM (inactive) | GI50 (KM12): 34.4 µM (inactive) | GI50 (SF-268): 11.2 µM (inactive) | GI50 (SK-OV-3): > 100 µM (inactive) | GI50 (HCT-15): 15.5 µM | GI50 (ACHN): 26.7 µM (inactive) | GI50 (COLO 205): 20.2 µM (inactive) | GI50 (HCT-116): 19.9 µM (inactive) | GI50 (UACC-62): 21.5 µM (inactive) | GI50 (NCI-H23): 22.8 µM (inactive) | GI50 (A498): 45.6 µM (inactive) | GI50 (HT-29): 14.8 µM (inactive) | GI50 (UO-31): 17.2 µM (inactive) | GI50 (A549): 29.8 µM (inactive) | GI50 (DMS-273): 11.8 µM (inactive)

COC(=O)c1cccc2cccc(C(=O)Nc3ccc(Cl)cc3)c12
GI50 (HOP-92): > 69.7 µM (inactive) | GI50 (SK-MEL-5): 0.336 µM (active) | GI50 (SNB-19): > 100 µM (inactive) | GI50 (KM12): > 40.9 µM (inactive) | GI50 (SF-268): > 68.7 µM (inactive) | GI50 (SK-OV-3): > 100 µM (inactive) | GI50 (HCT-15): > 35.2 µM | GI50 (ACHN): 2.92 µM (inactive) | GI50 (COLO 205): 0.977 µM (active) | GI50 (HCT-116): > 35.1 µM (inactive) | GI50 (UACC-62): 0.153 µM (active) | GI50 (NCI-H23): 12.7 µM (inactive) | GI50 (A498): 36.1 µM (inactive) | GI50 (UO-31): 2.94 µM (inactive) | GI50 (NCI-H226): > 100 µM (inactive) | GI50 (A549): > 78.2 µM (inactive) | GI50 (DMS-273): 0.729 µM (active)

C#CCN(N=O)C(=O)NCCCCC(NC(=O)OCc1ccccc1)C(=O)OCc1ccccc1 (configuration not stated)
GI50 (HOP-92): 20.3 µM (inactive) | GI50 (SK-MEL-5): 62.4 µM (inactive) | GI50 (SNB-19): > 100 µM (inactive) | GI50 (KM12): > 100 µM (inactive) | GI50 (SF-268): 27.6 µM (inactive) | GI50 (SK-OV-3): > 100 µM (inactive) | GI50 (HCT-15): 33.7 µM | GI50 (ACHN): 61.5 µM (inactive) | GI50 (HCT-116): 32.7 µM (inactive) | GI50 (UACC-62): 30.6 µM (inactive) | GI50 (NCI-H23): 34.6 µM (inactive) | GI50 (A498): > 100 µM (inactive) | GI50 (HT-29): 62.4 µM (inactive) | GI50 (UO-31): > 100 µM (inactive) | GI50 (NCI-H226): > 100 µM (inactive) | GI50 (DMS-273): 84.3 µM (inactive)
